From patent US7973012B2, “C-phenyl glycitol compound” (Taisho Pharmaceutical Co., Ltd, priority 2006, dated 2011)

Key:
[1] = target: T1, human SGLT2 (Homo sapiens, UniProt P31639); test: Inhibition test of sodium-dependent sugar uptake in CHO-k1 cells stably expressing human SGLT2; type: cell-based; settings: for IC50: CHO-k1 cells expressing human SGLT2, [14C]methyl α-D-glucopyranoside uptake, 37° C., an hour; for SGLT2 % inhibition at 100 nM: sugar uptake inhibition rate at 100 nM test compound vs control group
T1 construct: expressed in transfected cells; host or cells: CHO-k1
T1 sequence (P31639 1-672): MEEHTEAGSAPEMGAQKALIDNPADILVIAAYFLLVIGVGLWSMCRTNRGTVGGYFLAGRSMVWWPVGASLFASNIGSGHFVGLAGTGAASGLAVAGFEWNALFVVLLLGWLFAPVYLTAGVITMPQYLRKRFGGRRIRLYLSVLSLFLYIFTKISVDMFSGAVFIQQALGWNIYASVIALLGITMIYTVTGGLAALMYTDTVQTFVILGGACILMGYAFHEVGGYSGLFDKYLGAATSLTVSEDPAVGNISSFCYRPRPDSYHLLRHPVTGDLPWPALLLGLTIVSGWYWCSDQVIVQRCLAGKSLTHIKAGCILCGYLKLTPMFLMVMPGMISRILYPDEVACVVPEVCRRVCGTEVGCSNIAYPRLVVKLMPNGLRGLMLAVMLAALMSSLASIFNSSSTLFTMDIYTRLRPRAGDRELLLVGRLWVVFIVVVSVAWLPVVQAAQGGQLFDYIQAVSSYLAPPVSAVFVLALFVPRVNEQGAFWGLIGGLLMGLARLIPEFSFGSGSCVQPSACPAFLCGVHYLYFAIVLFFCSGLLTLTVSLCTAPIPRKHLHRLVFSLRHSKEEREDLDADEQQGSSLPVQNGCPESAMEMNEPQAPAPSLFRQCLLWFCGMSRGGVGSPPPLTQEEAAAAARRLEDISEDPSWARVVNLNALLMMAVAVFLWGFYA
Procedure: (§1) An SGLT1 sequence (NM_000343) was reverse-transcripted from human small intestinal mRNA, then amplified, and then introduced into pCMV-tag5A from Stratagene Corporation. An SGLT2 sequence (NM_003041) was prepared from human nephric mRNA as with the above method, and then introduced into pcDNA3.1+hygro from Invitrogen Corporation. Each cloned sequence was confirmed to be identical with the reported sequence.
(§2) The human SGLT1 and human SGLT2 expression vectors were transfected into CHO-k1 cells by using Lipofectamine 2000 from Invitrogen Corporation. The SGLT expression cells were incubated in the presence of Geneticin (SGLT1) or Hygromycin B (SGLT2) at a 500 μg/mL concentration to select resistant strains, and specific activity of sugar uptake was obtained as an indicator by the following system.
(§3) Cells stably expressing human SGLT1 and human SGLT2 were used for the inhibition test of sodium-dependent glucose uptake.
(§4) The cells were incubated in a pretreatment buffer A (200 μL for SGLT1, and 2 mL for SGLT2) for 20 minutes. The pretreatment buffer was removed and an uptake buffer B (75 μL for SGLT1, and 200 μL for SGLT2) containing a test compound was added to conduct an uptake reaction at 37° C. for 30 minutes (SGLT1) or an hour (SGLT2). After the reaction, the cells were washed with a washing buffer C twice (200 μL for SGLT1, and 2 mL for SGLT2), and then dissolved in a 0.2 M solution of NaOH (75 μL for SGLT1, and 400 μL for SGLT2). After a liquid scintilater was added thereto and mixed sufficiently, radioactivity was measured with microBETA (SGLT1) or a liquid scintillation counter from Beckman Coulter, Inc (SGLT2). As a control group, an uptake buffer containing no test compound was prepared. In addition, as the basic uptake buffer, an uptake buffer B containing choline chloride instead of NaCl was prepared. • A pretreatment buffer A: 140 mM choline chloride, 2 mM KCl, 1 mM CaCl2, 1 mM MgCl2, 10 mM HEPES/5 mM Tris, pH 7.4. • An uptake buffer B: 1 mM of methyl α-D-glucopyranoside containing [^14C]methyl α-D-glucopyranoside, 140 mM NaCl, 2 mM KCl, 1 mM CaCl2, 1 mM MgCl2, 10 mM HEPES/5 mM Tris, pH 7.4. • A washing buffer C: 10 mM methyl α-D-glucopyranoside, 140 mM choline chloride, 2 mM KCl, 1 mM CaCl2, 1 mM MgCl2, 10 mM HEPES/5 mM Tris, pH 7.4.
(§5) In order to obtain IC50 values, test compounds having adequate 6 concentrations were used and the test compound concentrations (IC50 values) at which sugar uptake is inhibited by 50% in comparison with the amount of sugar uptake (100%) of the control group were calculated.
(§6) In addition, the sugar uptake inhibition rates at 100 nM concentration of the test compound in comparison with the control group are shown in Table 7.

[2] = target: T2, human SGLT1 (Homo sapiens, UniProt P13866); test: Inhibition test of sodium-dependent sugar uptake in CHO-k1 cells stably expressing human SGLT1; type: cell-based; settings: for IC50: CHO-k1 cells expressing human SGLT1, [14C]methyl α-D-glucopyranoside uptake, 37° C., 30 minutes; for SGLT1 % inhibition at 100 nM: sugar uptake inhibition rate at 100 nM test compound vs control group
T2 construct: expressed in transfected cells; host or cells: CHO-k1
T2 sequence (P13866 1-664): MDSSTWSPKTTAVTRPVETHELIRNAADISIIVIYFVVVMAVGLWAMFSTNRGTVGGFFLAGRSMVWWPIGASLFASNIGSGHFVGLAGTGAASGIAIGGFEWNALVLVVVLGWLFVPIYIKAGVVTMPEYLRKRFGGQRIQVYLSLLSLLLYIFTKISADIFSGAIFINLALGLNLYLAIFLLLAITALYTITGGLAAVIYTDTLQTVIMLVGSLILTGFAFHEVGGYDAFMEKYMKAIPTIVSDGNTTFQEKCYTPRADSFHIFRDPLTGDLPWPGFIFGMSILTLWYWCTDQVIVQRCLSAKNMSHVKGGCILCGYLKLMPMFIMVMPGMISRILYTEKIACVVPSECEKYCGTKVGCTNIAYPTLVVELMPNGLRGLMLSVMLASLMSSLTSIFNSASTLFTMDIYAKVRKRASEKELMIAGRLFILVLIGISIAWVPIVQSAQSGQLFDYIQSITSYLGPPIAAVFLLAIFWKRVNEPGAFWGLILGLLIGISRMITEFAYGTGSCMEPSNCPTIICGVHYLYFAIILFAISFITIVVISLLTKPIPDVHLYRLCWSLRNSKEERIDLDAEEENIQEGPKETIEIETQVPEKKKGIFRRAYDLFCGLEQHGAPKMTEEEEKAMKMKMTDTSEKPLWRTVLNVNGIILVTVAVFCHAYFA
Procedure: as §1, §2, §3, §4, §5, §6

SMILES: Cc1cc(O)c([C@@H]2O[C@H](CO)[C@@H](O)[C@H](O)[C@H]2O)cc1Cc1ccc(CCNC(=O)NCCN2CCCC2)cc1 [Compound 30]
- IC50 [1]: 13 nM
- IC50 [2]: 111 nM

SMILES: Cc1cc(O)c([C@@H]2O[C@H](CO)[C@@H](O)[C@H](O)[C@H]2O)cc1Cc1ccc(CCNC(=O)NCCCCc2ccccc2)cc1 [Compound 62]
- SGLT2 % inhibition at 100 nM [1]: 79%
- SGLT1 % inhibition at 100 nM [2]: 65%

SMILES: Cc1cc(O)c([C@@H]2O[C@H](CO)[C@@H](O)[C@H](O)[C@H]2O)cc1Cc1ccc(CCNC(=O)NC2CCCC2)cc1 [Compound 125]
- SGLT2 % inhibition at 100 nM [1]: 90%
- SGLT1 % inhibition at 100 nM [2]: 68%

SMILES: Cc1cc(O)c([C@@H]2O[C@H](CO)[C@@H](O)[C@H](O)[C@H]2O)cc1Cc1ccc(CCNC(=O)NC(CO)C(C)C)cc1 (stereo partly shown) [Compound 43]
- SGLT2 % inhibition at 100 nM [1]: 86%
- SGLT1 % inhibition at 100 nM [2]: 77%

SMILES: O=C(NCCc1ccc(Cc2cc([C@@H]3O[C@H](CO)[C@@H](O)[C@H](O)[C@H]3O)ccc2Cl)cc1)NC(CO)(CO)CO [Compound 17, (1S)-1,5-anhydro-1-[4-chloro-3-[4-[2-[[[2-hydroxy-1,1-bis(hydroxymethyl)ethyl]aminocarbonyl]amino]ethyl]benzyl]phenyl]-D-glucitol]
- IC50 [1]: 25 nM
- IC50 [2]: 79 nM

SMILES: COc1ccc(CCN(C)C(=O)NCCc2ccc(Cc3cc([C@@H]4O[C@H](CO)[C@@H](O)[C@H](O)[C@H]4O)c(O)cc3C)cc2)cc1OC [Compound 57]
- SGLT2 % inhibition at 100 nM [1]: 51%
- SGLT1 % inhibition at 100 nM [2]: 68%

SMILES: Cc1cc(O)c([C@@H]2O[C@H](CO)[C@@H](O)[C@H](O)[C@H]2O)cc1Cc1ccc(CCNC(=O)NCC(c2ccccc2)c2ccccc2)cc1 [Compound 53]
- SGLT2 % inhibition at 100 nM [1]: 74%
- SGLT1 % inhibition at 100 nM [2]: 70%

SMILES: COc1ccc(CCNC(=O)NCCc2ccc(Cc3cc([C@@H]4O[C@H](CO)[C@@H](O)[C@H](O)[C@H]4O)c(O)cc3C)cc2)cc1OC [Compound 55]
- SGLT2 % inhibition at 100 nM [1]: 69%
- SGLT1 % inhibition at 100 nM [2]: 69%

SMILES: CCC(CO)(CO)NC(=O)NCCc1ccc(Cc2cc([C@@H]3O[C@H](CO)[C@@H](O)[C@H](O)[C@H]3O)c(O)cc2C)cc1 [Compound 38]
- SGLT2 % inhibition at 100 nM [1]: 83%
- SGLT1 % inhibition at 100 nM [2]: 89%

SMILES: CCCNC(=O)NCCc1ccc(Cc2cc([C@@H]3O[C@H](CO)[C@@H](O)[C@H](O)[C@H]3O)c(O)cc2C)cc1 [Compound 56]
- SGLT2 % inhibition at 100 nM [1]: 77%
- SGLT1 % inhibition at 100 nM [2]: 68%

SMILES: CSCC[C@@H](CO)NC(=O)NCCc1ccc(Cc2cc([C@@H]3O[C@H](CO)[C@@H](O)[C@H](O)[C@H]3O)c(O)cc2C)cc1 [Compound 47]
- SGLT2 % inhibition at 100 nM [1]: 89%
- SGLT1 % inhibition at 100 nM [2]: 73%

SMILES: Cc1cc(O)c([C@@H]2O[C@H](CO)[C@@H](O)[C@H](O)[C@H]2O)cc1Cc1ccc(CCNC(=O)NCc2ccco2)cc1 [Compound 42]
- SGLT2 % inhibition at 100 nM [1]: 87%
- SGLT1 % inhibition at 100 nM [2]: 78%

SMILES: Cc1cc(O)c([C@@H]2O[C@H](CO)[C@@H](O)[C@H](O)[C@H]2O)cc1Cc1ccc(CCNC(=O)N(CC(C)C)CC(C)C)cc1 [Compound 59]
- SGLT2 % inhibition at 100 nM [1]: 86%
- SGLT1 % inhibition at 100 nM [2]: 67%

SMILES: O=C(NCCc1ccc(Cc2cc([C@@H]3O[C@H](CO)[C@@H](O)[C@H](O)[C@H]3O)c(O)cc2Cl)cc1)NC(CO)(CO)CO [Compound 14, (1S)-1,5-anhydro-1-[4-chloro-5-[4-[2-[[[2-hydroxy-1,1-bis(hydroxymethyl)ethyl]aminocarbonyl]amino]ethyl]benzyl]-2-hydroxyphenyl]-D-glucitol]
- IC50 [1]: 21 nM
- IC50 [2]: 49 nM

SMILES: Cc1cc(O)c([C@@H]2O[C@H](CO)[C@@H](O)[C@H](O)[C@H]2O)cc1Cc1ccc(OCCNC(=O)NC(CO)(CO)CO)cc1 [Compound 19]
- IC50 [1]: 101 nM
- IC50 [2]: 302 nM

SMILES: COC(=O)C(NC(=O)NCCc1ccc(Cc2cc(C3OC(CO)C(O)C(O)C3O)c(O)cc2C)cc1)C(C)(C)C (stereo not shown) [Compound 54]
- SGLT2 % inhibition at 100 nM [1]: 73%
- SGLT1 % inhibition at 100 nM [2]: 79%

SMILES: COC(=O)CCNC(=O)NCCc1ccc(Cc2cc([C@@H]3O[C@H](CO)[C@@H](O)[C@H](O)[C@H]3O)c(O)cc2C)cc1 [Compound 32]
- IC50 [1]: 44 nM
- IC50 [2]: 245 nM

SMILES: Cc1cc(O)c([C@@H]2O[C@H](CO)[C@@H](O)[C@H](O)[C@H]2O)cc1Cc1ccc(CCNC(=O)NCc2cccs2)cc1 [Compound 26]
- IC50 [1]: 15 nM
- IC50 [2]: 52 nM

SMILES: Cc1cc(O)c(C2OC(CO)C(O)C(O)C2O)cc1Cc1ccc(CCNC(=O)N2CCC3CCCCC3C2)cc1 (mixture of isomers) [Compound 143]
- SGLT2 % inhibition at 100 nM [1]: 80%
- SGLT1 % inhibition at 100 nM [2]: 66%

SMILES: Cc1cc(O)c([C@@H]2O[C@H](CO)[C@@H](O)[C@H](O)[C@H]2O)cc1Cc1ccc(CCNC(=O)NC2(CO)CCCC2)cc1 [Compound 23]
- IC50 [1]: 19 nM
- IC50 [2]: 19 nM

SMILES: COCCNC(=O)NCCc1ccc(Cc2cc([C@@H]3O[C@H](CO)[C@@H](O)[C@H](O)[C@H]3O)c(O)cc2C)cc1 [Compound 31]
- IC50 [1]: 39 nM
- IC50 [2]: 148 nM

SMILES: Cc1cc(O)c([C@@H]2O[C@H](CO)[C@@H](O)[C@H](O)[C@H]2O)cc1Cc1ccc(CCNC(=O)NCc2cc3ccccc3s2)cc1 [Compound 61]
- SGLT2 % inhibition at 100 nM [1]: 95%
- SGLT1 % inhibition at 100 nM [2]: 65%

SMILES: Cc1cc(O)c([C@@H]2O[C@H](CO)[C@@H](O)[C@H](O)[C@H]2O)cc1Cc1ccc(CCNC(=O)NC2C3CC4CC(C3)CC2C4)cc1 (stereo partly shown) [Compound 123]
- SGLT2 % inhibition at 100 nM [1]: 87%
- SGLT1 % inhibition at 100 nM [2]: 78%
